# Test results published in ChEMBL document CHEMBL4507280 (2021).
# Activity calls are given as the source filed them. No cut-off for these calls is given here.
# Legend:
# Fatty acid synthase = Fatty acid synthase (Homo sapiens, UniProt P49327); test: Inhibition of [14C]acetate incorporation into human H1975 cells; type: cell-based, NCI-H1975
# [1] = target: Adenosine receptor A1 (Homo sapiens) (UniProt P30542); test: A1/HU Eurofins-Panlabs selectivity data (BI); conditions: Compound concentration 10.0 uM
# [2] = target: T1, Alpha-1B adrenergic receptor (Homo sapiens) (UniProt P35368); test: ALPHA1B/R Eurofins-Panlabs selectivity data (BI); conditions: Rattus norvegicus; Compound concentration 10.0 uM
# T1 sequence (whole entry): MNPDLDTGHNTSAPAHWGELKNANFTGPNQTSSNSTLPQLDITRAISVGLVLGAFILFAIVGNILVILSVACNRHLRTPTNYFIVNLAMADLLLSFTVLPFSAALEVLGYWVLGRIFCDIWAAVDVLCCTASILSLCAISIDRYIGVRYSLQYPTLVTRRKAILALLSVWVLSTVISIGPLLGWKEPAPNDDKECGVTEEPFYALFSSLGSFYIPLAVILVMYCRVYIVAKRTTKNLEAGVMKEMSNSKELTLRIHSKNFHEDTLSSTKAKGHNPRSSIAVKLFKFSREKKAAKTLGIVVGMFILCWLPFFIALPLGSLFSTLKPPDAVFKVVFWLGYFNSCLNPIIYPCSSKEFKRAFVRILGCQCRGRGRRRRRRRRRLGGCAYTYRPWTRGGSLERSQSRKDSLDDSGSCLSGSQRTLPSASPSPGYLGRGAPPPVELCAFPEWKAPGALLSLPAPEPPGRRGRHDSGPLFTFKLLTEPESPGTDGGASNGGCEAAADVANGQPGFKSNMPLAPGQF
# [3] = target: Beta-2 adrenergic receptor (Homo sapiens) (UniProt P07550); test: BETA2/HU Eurofins-Panlabs selectivity data (BI); conditions: Compound concentration 10.0 uM
# [4] = target: D(2) dopamine receptor (Homo sapiens) (UniProt P14416); test: D2S/HU Eurofins-Panlabs selectivity data (BI); conditions: Compound concentration 10.0 uM
# [5] = target: Prostaglandin E2 receptor EP4 subtype (Homo sapiens) (UniProt P35408); test: EP4/H Eurofins-Panlabs selectivity data (BI); conditions: Compound concentration 10.0 uM
# [6] = target: Pyroglutamylated RF-amide peptide receptor (Homo sapiens) (UniProt Q96P65); test: GPR103 Eurofins-Panlabs selectivity data (BI); conditions: Compound concentration 10.0 uM
# [7] = target: T2, Muscarinic acetylcholine receptor M2 (Homo sapiens) (UniProt P08172); test: M2/HU Eurofins-Panlabs selectivity data (BI); conditions: Compound concentration 10.0 uM
# T2 sequence (whole entry): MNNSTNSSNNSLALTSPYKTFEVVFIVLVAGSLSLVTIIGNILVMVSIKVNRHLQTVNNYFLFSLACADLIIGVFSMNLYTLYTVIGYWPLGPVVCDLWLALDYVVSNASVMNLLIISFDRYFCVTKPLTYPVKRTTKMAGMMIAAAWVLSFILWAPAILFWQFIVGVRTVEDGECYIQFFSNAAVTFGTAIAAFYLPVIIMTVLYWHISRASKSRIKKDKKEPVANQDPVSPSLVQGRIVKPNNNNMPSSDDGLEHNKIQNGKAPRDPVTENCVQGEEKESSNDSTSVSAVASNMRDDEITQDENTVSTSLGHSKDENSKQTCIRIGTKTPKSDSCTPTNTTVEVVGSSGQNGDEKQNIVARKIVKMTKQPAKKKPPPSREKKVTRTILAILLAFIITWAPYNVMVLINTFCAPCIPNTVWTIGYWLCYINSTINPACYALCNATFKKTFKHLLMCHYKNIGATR
# [8] = target: Muscarinic acetylcholine receptor M3 (Homo sapiens) (UniProt P20309); test: M3/HU Eurofins-Panlabs selectivity data (BI); conditions: Compound concentration 10.0 uM
# [9] = target: Acetylcholine receptor subunit alpha (Homo sapiens) (UniProt P02708); test: NACH/H Eurofins-Panlabs selectivity data (BI); conditions: Compound concentration 10.0 uM
# [10] = target: Sodium-dependent noradrenaline transporter (Homo sapiens) (UniProt P23975); test: NETRANS/H Eurofins-Panlabs selectivity data (BI); conditions: Compound concentration 10.0 uM
# [11] = target: Glutamate receptor ionotropic, NMDA 2A (Rattus norvegicus) (UniProt Q00959); test: NMDAPHSI/R Eurofins-Panlabs selectivity data (BI); conditions: Compound concentration 10.0 uM
# [12] = target: Protein kinase C alpha type (Mus musculus) (UniProt P20444); test: PHORBOLE/M Eurofins-Panlabs selectivity data (BI); conditions: Compound concentration 10.0 uM
# [13] = target: 3',5'-cyclic-AMP phosphodiesterase 4A (Rattus norvegicus) (UniProt P54748); test: ROLIPRAM/R Eurofins-Panlabs selectivity data (BI); conditions: Compound concentration 10.0 uM
# [14] = target: Sigma non-opioid intracellular receptor 1 (Homo sapiens) (UniProt Q99720); test: SIGMA1/HU Eurofins-Panlabs selectivity data (BI); conditions: Compound concentration 10.0 uM
# [15] = target: T3, Sigma intracellular receptor 2 (Homo sapiens, UniProt Q5BJF2); test: SIGMA2/R Eurofins-Panlabs selectivity data (BI); conditions: Rattus norvegicus; Compound concentration 10.0 uM
# [16] = target: Dual specificity mitogen-activated protein kinase kinase 5 (Homo sapiens) (UniProt Q13163); conditions: Compound concentration 1000.0 nM
# [17] = target: 5-hydroxytryptamine receptor 1B (Homo sapiens) (UniProt P28222); conditions: Compound concentration 10.0 uM
# [18] = target: Histamine H2 receptor (Homo sapiens) (UniProt P25021); conditions: Compound concentration 10.0 uM
# [19] = target: Muscarinic acetylcholine receptor M1 (Homo sapiens) (UniProt P11229); conditions: Compound concentration 10.0 uM
# [20] = target: Alpha-1D adrenergic receptor (Homo sapiens) (UniProt P25100); conditions: Compound concentration 10.0 uM
# Histamine H4 receptor = Histamine H4 receptor (Homo sapiens, UniProt Q9H3N8); test: GPCRScan assay: inhibition of H4; set-up: radioligand conc. used [nm] 1.0 – 5.0, parental cells HEK T
# [21] = target: T3, Sigma intracellular receptor 2; test: GPCRScan assay: inhibition of Sigma 2; set-up: radioligand conc. used [nm] 5.0, parental cells HEKT
# [22] = target: Activin receptor type-1B (Homo sapiens) (UniProt P36896); conditions: Compound concentration 1000.0 nM
# [23] = target: Peripheral plasma membrane protein CASK (Homo sapiens) (UniProt O14936); conditions: Compound concentration 1000.0 nM
# [24] = target: Tyrosine-protein kinase Fgr (Homo sapiens) (UniProt P09769); conditions: Compound concentration 1000.0 nM
# [25] = target: Glycogen synthase kinase-3 beta (Homo sapiens) (UniProt P49841); conditions: Compound concentration 1000.0 nM
# [26] = target: Dual specificity mitogen-activated protein kinase kinase 2 (Homo sapiens) (UniProt P36507); conditions: Compound concentration 1000.0 nM
# [27] = target: Serine/threonine-protein kinase MRCK beta (Homo sapiens) (UniProt Q9Y5S2); conditions: Compound concentration 1000.0 nM
# [28] = target: Ribosomal protein S6 kinase alpha-5 (Homo sapiens) (UniProt O75582); conditions: Compound concentration 1000.0 nM
# [29] = target: NUAK family SNF1-like kinase 2 (Homo sapiens) (UniProt Q9H093); conditions: Compound concentration 1000.0 nM
# [30] = target: Alpha-2A adrenergic receptor (Homo sapiens) (UniProt P08913); conditions: Compound concentration 10.0 uM
# T3 sequence (Q5BJF2 whole entry): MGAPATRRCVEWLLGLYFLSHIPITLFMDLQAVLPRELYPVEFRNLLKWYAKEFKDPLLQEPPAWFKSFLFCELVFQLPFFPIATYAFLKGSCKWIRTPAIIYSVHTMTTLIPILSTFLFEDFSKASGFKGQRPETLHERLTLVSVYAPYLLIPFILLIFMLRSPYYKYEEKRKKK
# Chain of Sodium-dependent noradrenaline transporter (Homo sapiens) (P23975 whole entry): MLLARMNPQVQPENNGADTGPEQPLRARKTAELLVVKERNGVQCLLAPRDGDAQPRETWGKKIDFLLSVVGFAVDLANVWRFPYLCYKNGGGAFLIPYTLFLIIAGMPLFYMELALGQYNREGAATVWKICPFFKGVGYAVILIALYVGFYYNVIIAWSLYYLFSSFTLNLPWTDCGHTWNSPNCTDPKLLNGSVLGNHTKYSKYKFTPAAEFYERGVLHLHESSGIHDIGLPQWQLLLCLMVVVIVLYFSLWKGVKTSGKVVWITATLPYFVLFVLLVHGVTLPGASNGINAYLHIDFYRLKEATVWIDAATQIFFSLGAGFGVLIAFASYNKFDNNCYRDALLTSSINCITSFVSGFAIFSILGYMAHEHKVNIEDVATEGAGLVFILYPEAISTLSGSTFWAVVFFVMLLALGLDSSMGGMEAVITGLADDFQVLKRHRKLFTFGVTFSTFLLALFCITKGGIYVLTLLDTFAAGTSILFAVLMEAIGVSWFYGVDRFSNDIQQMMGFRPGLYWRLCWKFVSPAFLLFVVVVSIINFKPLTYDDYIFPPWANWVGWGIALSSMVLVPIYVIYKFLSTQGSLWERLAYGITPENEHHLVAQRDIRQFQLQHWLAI
# Chain of Fatty acid synthase (P49327 whole entry): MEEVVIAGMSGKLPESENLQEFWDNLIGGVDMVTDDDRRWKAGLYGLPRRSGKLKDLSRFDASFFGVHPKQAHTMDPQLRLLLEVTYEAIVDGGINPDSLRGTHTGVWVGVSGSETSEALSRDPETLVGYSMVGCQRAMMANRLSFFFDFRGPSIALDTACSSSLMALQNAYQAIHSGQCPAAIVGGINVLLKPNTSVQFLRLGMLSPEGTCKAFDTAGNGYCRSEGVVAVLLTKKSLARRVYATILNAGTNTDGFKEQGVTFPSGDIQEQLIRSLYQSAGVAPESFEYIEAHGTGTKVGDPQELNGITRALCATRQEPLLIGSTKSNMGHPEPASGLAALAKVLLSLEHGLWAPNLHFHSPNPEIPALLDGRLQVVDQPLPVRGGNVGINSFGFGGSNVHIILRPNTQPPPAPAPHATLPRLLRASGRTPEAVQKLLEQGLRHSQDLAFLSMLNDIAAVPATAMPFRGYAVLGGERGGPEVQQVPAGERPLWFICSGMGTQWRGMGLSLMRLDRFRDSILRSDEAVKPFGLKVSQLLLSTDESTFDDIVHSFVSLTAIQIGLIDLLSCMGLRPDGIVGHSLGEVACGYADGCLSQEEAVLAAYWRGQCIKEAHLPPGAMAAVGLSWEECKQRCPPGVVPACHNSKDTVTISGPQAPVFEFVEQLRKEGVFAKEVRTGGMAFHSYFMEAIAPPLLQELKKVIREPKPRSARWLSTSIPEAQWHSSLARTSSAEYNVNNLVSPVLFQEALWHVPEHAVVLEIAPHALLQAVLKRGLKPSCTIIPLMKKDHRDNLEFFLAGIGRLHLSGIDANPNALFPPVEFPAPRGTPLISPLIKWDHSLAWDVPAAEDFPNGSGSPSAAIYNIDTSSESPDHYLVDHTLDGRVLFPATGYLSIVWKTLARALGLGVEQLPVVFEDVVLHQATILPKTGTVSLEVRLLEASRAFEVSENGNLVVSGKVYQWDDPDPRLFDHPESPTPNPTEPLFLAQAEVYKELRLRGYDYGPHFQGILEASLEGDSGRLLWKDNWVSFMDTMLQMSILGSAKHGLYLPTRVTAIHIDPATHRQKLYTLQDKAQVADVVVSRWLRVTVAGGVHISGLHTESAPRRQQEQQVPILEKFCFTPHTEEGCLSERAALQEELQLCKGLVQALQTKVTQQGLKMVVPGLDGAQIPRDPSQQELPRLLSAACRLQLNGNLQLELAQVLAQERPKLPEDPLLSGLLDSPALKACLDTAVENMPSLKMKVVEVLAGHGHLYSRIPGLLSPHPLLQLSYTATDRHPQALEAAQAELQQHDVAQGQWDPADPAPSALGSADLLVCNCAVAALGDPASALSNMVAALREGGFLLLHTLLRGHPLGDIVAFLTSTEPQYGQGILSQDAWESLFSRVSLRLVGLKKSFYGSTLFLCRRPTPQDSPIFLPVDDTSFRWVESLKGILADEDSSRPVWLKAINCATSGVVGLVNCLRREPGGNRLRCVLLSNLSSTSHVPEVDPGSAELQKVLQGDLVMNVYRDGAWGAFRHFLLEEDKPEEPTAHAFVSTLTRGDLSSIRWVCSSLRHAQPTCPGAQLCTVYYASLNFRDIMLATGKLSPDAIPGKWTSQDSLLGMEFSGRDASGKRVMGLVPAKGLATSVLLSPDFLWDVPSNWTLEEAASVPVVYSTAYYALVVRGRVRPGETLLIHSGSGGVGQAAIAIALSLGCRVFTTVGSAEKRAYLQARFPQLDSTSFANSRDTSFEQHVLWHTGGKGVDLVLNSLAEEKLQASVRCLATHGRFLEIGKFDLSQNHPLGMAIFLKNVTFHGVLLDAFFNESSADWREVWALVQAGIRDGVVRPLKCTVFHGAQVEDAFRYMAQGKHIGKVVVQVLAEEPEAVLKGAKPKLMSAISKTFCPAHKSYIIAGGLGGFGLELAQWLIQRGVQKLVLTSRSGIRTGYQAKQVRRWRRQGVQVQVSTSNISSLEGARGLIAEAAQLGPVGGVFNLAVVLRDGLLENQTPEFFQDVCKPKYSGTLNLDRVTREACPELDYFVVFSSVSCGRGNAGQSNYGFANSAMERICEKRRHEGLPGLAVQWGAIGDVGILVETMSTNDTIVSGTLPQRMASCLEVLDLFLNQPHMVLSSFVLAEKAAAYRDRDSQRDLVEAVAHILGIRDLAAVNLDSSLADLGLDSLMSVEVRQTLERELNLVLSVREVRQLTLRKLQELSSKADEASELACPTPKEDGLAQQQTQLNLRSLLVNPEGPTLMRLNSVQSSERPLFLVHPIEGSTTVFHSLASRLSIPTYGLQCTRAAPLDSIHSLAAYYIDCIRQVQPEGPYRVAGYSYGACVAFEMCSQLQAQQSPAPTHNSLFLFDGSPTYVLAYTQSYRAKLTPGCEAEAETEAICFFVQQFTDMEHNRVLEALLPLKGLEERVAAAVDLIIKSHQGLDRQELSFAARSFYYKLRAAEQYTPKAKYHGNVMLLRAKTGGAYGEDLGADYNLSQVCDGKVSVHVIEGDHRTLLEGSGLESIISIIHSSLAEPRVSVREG
# Chain of Tyrosine-protein kinase Fgr (Homo sapiens) (P09769 2-529 limits assumed): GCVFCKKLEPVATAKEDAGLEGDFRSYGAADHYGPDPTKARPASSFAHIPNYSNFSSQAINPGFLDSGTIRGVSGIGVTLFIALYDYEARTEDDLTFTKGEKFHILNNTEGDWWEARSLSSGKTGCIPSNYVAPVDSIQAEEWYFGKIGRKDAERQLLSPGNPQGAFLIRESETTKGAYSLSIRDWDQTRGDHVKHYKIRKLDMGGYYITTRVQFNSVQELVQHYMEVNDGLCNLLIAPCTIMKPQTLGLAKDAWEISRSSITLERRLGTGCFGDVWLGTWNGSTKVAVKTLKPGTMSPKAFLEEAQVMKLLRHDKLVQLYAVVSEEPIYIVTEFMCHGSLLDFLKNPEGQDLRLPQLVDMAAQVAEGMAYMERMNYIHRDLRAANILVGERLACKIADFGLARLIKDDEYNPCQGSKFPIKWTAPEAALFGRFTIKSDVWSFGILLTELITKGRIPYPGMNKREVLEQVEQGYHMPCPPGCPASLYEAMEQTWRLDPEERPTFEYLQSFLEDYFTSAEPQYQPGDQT
# Chain of Dual specificity mitogen-activated protein kinase kinase 2 (Homo sapiens) (P36507 whole entry): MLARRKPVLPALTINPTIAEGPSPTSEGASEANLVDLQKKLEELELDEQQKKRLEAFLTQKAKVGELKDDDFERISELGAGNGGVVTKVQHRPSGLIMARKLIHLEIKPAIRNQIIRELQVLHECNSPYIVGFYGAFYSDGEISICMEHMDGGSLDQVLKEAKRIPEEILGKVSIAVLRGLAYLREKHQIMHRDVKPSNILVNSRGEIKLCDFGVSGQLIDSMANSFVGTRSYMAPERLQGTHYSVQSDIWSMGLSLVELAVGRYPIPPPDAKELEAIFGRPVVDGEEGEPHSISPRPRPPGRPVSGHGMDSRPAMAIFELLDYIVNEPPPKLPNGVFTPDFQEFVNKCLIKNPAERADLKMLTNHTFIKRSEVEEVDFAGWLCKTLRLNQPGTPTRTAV
# Chain of Dual specificity mitogen-activated protein kinase kinase 5 (Homo sapiens) (Q13163 whole entry): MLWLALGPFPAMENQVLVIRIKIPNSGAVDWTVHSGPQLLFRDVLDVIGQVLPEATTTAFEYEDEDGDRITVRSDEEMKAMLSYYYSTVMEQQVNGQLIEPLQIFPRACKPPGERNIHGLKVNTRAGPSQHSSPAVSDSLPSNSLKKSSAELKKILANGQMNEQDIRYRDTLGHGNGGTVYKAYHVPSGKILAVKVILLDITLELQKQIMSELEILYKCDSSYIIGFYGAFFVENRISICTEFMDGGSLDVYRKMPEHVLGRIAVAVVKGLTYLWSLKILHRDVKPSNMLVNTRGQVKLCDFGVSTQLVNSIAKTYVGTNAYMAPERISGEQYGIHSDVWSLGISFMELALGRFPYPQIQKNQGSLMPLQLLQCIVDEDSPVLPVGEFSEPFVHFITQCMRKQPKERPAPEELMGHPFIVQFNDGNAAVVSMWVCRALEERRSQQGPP
# Chain of Histamine H2 receptor (Homo sapiens) (P25021 whole entry): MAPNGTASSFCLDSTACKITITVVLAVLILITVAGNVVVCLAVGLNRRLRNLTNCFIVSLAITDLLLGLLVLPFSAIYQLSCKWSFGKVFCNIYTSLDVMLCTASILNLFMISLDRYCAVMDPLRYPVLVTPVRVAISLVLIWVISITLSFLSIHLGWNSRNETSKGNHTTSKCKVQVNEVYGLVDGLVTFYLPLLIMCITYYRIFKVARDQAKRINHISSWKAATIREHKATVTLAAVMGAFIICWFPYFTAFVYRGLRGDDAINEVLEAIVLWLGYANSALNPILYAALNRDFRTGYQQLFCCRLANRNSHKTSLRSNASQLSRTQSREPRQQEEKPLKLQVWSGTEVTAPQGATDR
structure (smiles),measurement,setting,value
CCC(=O)N[C@H]1CC[C@@H](C(=O)N(C)c2ccc(-c3nc4ccccc4o3)cc2)C1 [BI 99179],IC50,Fatty acid synthase,180 nM (active)
same,residual activity,[1],107%
same,residual activity,[2],96%
same,residual activity,[3],100%
same,residual activity,[4],95%
same,residual activity,[5],91%
same,residual activity,[6],101%
same,residual activity,[7],90%
same,residual activity,[8],106%
same,residual activity,[9],113%
same,residual activity,[10],91%
same,residual activity,[11],101%
same,residual activity,[12],94%
same,residual activity,[13],83%
same,residual activity,[14],102%
same,residual activity,[15],87%
same,residual activity,[16],16%
same,inhibition,[17],25.7%
same,inhibition,[18],-1.25%
same,inhibition,[19],3.53%
same,inhibition,[20],50%
CCC(=O)N[C@@H]1CC[C@H](C(=O)N(C)c2ccc(-c3nc4ccccc4o3)cc2)C1 [BI 99990],Ki,Histamine H4 receptor,1630 nM
same,Ki,[21],396 nM
same,residual activity,[22],100%
same,residual activity,[23],83%
same,residual activity,[24],100%
same,residual activity,[25],96%
same,residual activity,[26],100%
same,residual activity,[27],100%
same,residual activity,[28],75%
same,residual activity,[29],100%
same,inhibition,[30],11.2%
